According to patent US20170306047A1, “PHARMACEUTICAL COMPOSITION FOR CANCER PREVENTION AND TREATMENT, CONTAINING NDRG3 EXPRESSION OR ACTIVITY INHIBITOR AS ACTIVE INGREDIENT, OR NDRG3 PROTEIN-SPECIFIC ANTIBODY AND USE THEREOF” (KOREA RESEARCH INSTITUTE OF BIOSCIENCE AND BIOTECHNOLOGY, priority 2014, published 2017):
Values belong to the compound of their own block, whether it stands above or below them. Where a SMILES comes first, the peptide text is derived from it. The star is where a group is joined. Cbz = O=C(OCc1ccccc1)*

How the values were obtained:
[1] = target: T1, recombinant GST-NDRG3 (G138W) variant protein (Homo sapiens, UniProt Q9UGV2, G138W); test: In vitro binding assay with L-[14C]-lactate, NDRG3 (G138W) variant; conditions: 50 μg GST-NDRG3 (G138W) versus GST-NDRG3
T1 construct: made in house; host or cells: E. coli BL21
Method: Specifically, to confirm interaction between L-lactate and the NDRG3 protein, a site-directed mutation was performed, as described in Example 4-3, using the pGEX-4T-2-NDRG3, which was cloned by the method disclosed in Example 4-1, as a template, and primers listed in the following Table 4, thereby obtaining a pGEX-4T-2-NDRG3 (G138W) variant construct in which glycine (G) that was an amino acid at position 138 among the L-lactate binding sites of the NDRG3 was substituted with […]. […]
Also, to confirm interaction between L-lactate and the NDRG3 protein, an in vitro binding assay was performed. […] Subsequently, the NDRG3-bound agarose resin was transferred to a scintillation solution containing 2 ml of an LSC-cocktail (PerkinElmer), and ^14C values were measured, and plotted in a graph (Left panel of FIG. 16B). Also, GST, the recombinant GST-NDRG3 protein (50 μg) or the recombinant GST-NDRG3 (G138W) variant protein (50 μg) was reacted with 0.5 μCi of L-[^14C]-lactate (PerkinElmer) at 30° C. for an hour, and ^14C values were then measured in the same manner as described above, and plotted in a graph (Right panel of FIG. 16B).

[2] = target: T2, recombinant GST-NDRG3 protein (Homo sapiens, UniProt Q9UGV2); test: In vitro binding assay with L-[14C]-lactate, wild-type NDRG3; conditions: 50 μg GST-NDRG3 versus GST, 30° C., one hour
T2 construct: made in house; host or cells: E. coli BL21
Method: Also, to confirm interaction between L-lactate and the NDRG3 protein, an in vitro binding assay was performed. GST or the recombinant GST-NDRG3 protein (50 μg) was reacted with 0.5 μCi of unlabeled L-lactate (pH 7.0, Sigma) and L-[^14C]-lactate (PerkinElmer) at 30° C. for an hour. Thereafter, a GST-conjugated agarose resin was added thereto, and the resulting mixture was reacted for 4 hours. Then, a resin to which the NDRG3-GST protein was bound was separated from the reaction mixture, and impurities were removed using PBS. Subsequently, the NDRG3-bound agarose resin was transferred to a scintillation solution containing 2 ml of an LSC-cocktail (PerkinElmer), and ^14C values were measured, and plotted in a graph (Left panel of FIG. 16B). Also, GST, the recombinant GST-NDRG3 protein (50 μg) or the recombinant GST-NDRG3 (G138W) variant protein (50 μg) was reacted with 0.5 μCi of L-[^14C]-lactate (PerkinElmer) at 30° C. for an hour, and ^14C values were then measured in the same manner as described above, and plotted in a graph (Right panel of FIG. 16B).

[3] = target: T3, recombinant human NDRG3-GST (Homo sapiens, UniProt Q9UGV2); test: In vitro ubiquitination assay of recombinant NDRG3 by PHD2/VHL complex; format: biochemical; conditions: L-lactate pH 7.0, 20 mM
T3 construct: made in house; host or cells: E. coli BL21 (NDRG3-GST); HEK293T immunoprecipitates (PHD2, VHL)
Method: Further, to check an effect of lactate generation on ubiquitination of the NDRG3, an in vitro ubiquitination assay was performed. First, HEK293T cells were transfected with the Flag-tagged PHD2 and HA-tagged VHL variants, as described in Example 3, collected, and then lysed. Thereafter, the protein lysate (500 μg) was reacted with an anti-HA affinity gel (Sigma) or an anti-Flag affinity gel (Sigma) at 4° C. for a day, and centrifuged to obtain recombinant PHD2 proteins or VHL proteins. Then, the recombinant PHD2-/VHL-binding proteins were untreated or treated with L-lactate (pH 7.0, 20 mM), and then reacted at 37° C. for an hour in 50 μl of a solution including recombinant human NDRG3-GST (4 μg) prepared by the method described in Example 4-1, 500 ng of a ubiquitin-activating enzyme (E1, Upstate), 1 μg of a ubiquitin-conjugating enzyme (E2 (UbcH5a), Upstate), 2.5 μg of ubiquitin-Flag (Sigma), 20 mM HEPES (pH 7.3), 5 mM MgCl2, 1 mM DTT, and 2 mM ATP. Subsequently, the mixture was incubated with a GST-conjugated agarose resin at 4° C. for 4 hours, and the precipitate was washed, and subjected to Western blotting using an anti-Flag antibody, as described in Example 3 (FIG. 15F).

[4] = system: human umbilical vein endothelial cells (HUVEC); test: Tube forming assay, culture broth of Huh-1 cells; format: cell-based; conditions: control Huh-1 cells, 24 hours, hypoxic condition (1% O2)
Method: (§1) Specifically, a tube forming assay was performed to check a change in angiogenesis activity by the NDRG3 deletion. First, the Huh-7 cells (2×10^5 cells/ml) in which the expression of the NDRG3 was inhibited using shNDRG3 according to the method described in Example 4-4, and the control Huh-7 cells were cultured for 24 hours under a hypoxic condition (1% O2), and a culture broth (1 ml) was recovered, and then cultured with human umbilical vein endothelial cells (HUVEC; 1×10^5 cells/ml) for 6 to 12 hours in a 6-well dish previously coated with Matrigel to observe formation of tubes (FIG. 13A).
(§2) Specifically, Huh-1 cells in which the NDRG3 (N66D) variant was overexpressed were prepared, and the control cells and the NDRG3 (N66D) variant-overexpressing Huh-1 cells were untreated or treated with sodium oxamate, statically cultured for 24 hours under a hypoxic condition (1% O2). Thereafter, the cells were collected, as described in Example 6-2, and then subjected to a tube forming assay (FIG. 18).

[5] = system: NDRG3 protein in MCF-7 cells; test: NDRG3 protein accumulation after inhibition of L-lactate generation, MCF-7 cells; format: cell-based; conditions: varying concentration, 24 hours, hypoxic condition (1% O2)
Method: Also, to check an effect of inhibition of the L-lactate generation on expression of the NDRG3 protein, MCF-7 cells were treated with a varying concentration of sodium oxamate that was a lactate dehydrogenase A (LDHA) inhibitor, statically cultured for 24 hours under a hypoxic condition (1% O2), as described in Example 5-2, and then collected and lysed, as described in Example 3. Thereafter, the cell lysate was subjected to Western blotting using anti-NDRG3, anti-HIF-1α and anti-β-actin antibodies, as described above, and L-lactate generation was determined, and then plotted in a graph. The values were normalized to the L-lactate standard curve (FIG. 15B).

Huh-1 cells = test: MTT assay of cell growth, Huh-1 cells; format: cell-based; conditions: varying concentration, light hypoxic condition (3% O2)
Method: (§3) Specifically, to check the cell growth in response to the NDRG3 deletion, an MTT assay was performed. First, the NDRG3-deleted Huh-1 cells prepared by the method disclosed in Example 6-1, and the control Huh-1 cells was seeded at a density of 2,000 cells/well in a 96-well plate, and then cultured at 37° C. in a 5% CO2 incubator under a hypoxic condition (3% O2) over time. Thereafter, the cells were treated with a 1 mg/ml MTT solution diluted with PBS, and reacted for 2 hours. Then, a medium containing the MTT was removed, and the cells were treated with 100 μl of DMSO to dissolve MTT formazan crystals. Subsequently, an optical density of the cell suspension was measured at a wavelength of 570 nm using a spectrophotometer (FIG. 14A).
(§4) Specifically, to check an effect of the ectopic NDRG3 (N66D) variant on the cell growth after inhibition of the lactate generation, Huh-1 cells were transfected with an ectopic variant NDRG3 (N66D) expression vector, as described in Example 4-3. Then, the Huh-1 cells and the NDRG3 (N66D) variant-overexpressing Huh-1 cells were seeded at a density of 1,000 cells/well in a 96-well plate, treated with a varying concentration of sodium oxamate, statically cultured by time under a light hypoxic condition (3% O2). Thereafter, to check the cell growth, an MTT assay was performed, as described in Example 6-3, and plotted in a graph (FIG. 17A).

[6] = system: NDRG3 (N66D) variant in Huh-1 cells; test: NDRG3 variant accumulation after inhibition of lactate generation, NDRG3 (N66D)-overexpressing Huh-1 cells; format: cell-based; conditions: ectopic NDRG3 (N66D) variant overexpressed, 40 mM, light hypoxic condition
Method: (§5) Also, to check an effect of the inhibition of the lactate generation on expression of the ectopic variant NDRG3 (N66D) protein under a sustained hypoxic condition, Huh-1 cells and the NDRG3 (N66D) variant-overexpressing Huh-1 cells were untreated or treated with 40 mM sodium oxamate, statically cultured by time under a light hypoxic condition, and then collected and lysed, as described in Example 3. Thereafter, the cell lysate was subjected to Western blotting using anti-NDRG3 and anti-β-actin antibodies (FIG. 17E).

[7] = system: NDRG3 (N66D) variant-overexpressing Huh-1 cells; test: MTT assay of cell growth, NDRG3 (N66D) variant-overexpressing Huh-1 cells; format: cell-based; conditions: ectopic NDRG3 (N66D) variant overexpressed, light hypoxic condition (3% O2)
Method: as §3, §4

[8] = system: human umbilical vein endothelial cells (HUVEC); test: Tube forming assay, culture broth of NDRG3 (N66D) variant-overexpressing Huh-1 cells; format: cell-based; conditions: ectopic NDRG3 (N66D) variant overexpressed, 24 hours, hypoxic condition (1% O2)
Method: as §1, §2

[9] = system: NDRG3 protein in Huh-1 cells; test: NDRG3 accumulation after inhibition of lactate generation, Western blotting, Huh-1 cells; format: cell-based; conditions: 40 mM, light hypoxic condition
Method: as §5

[10] = system: NDRG3 protein in HeLa cells; test: NDRG3 protein expression after PHD2 inhibition, Western blotting, HeLa cells; format: cell-based; conditions: varying concentration, 24 hours, normoxic condition (21% O2)
Method: (§6) Also, to determine the functional relationship between PHD2 and NDRG3, MCF-7 cells (FIG. 4B) or HeLa cells (FIG. 4C) were treated with a varying concentration of desferrioxamine (DFX), which was a PHD2 inhibitor, for 24 hours under a normoxic condition (21% O2), and then lysed, as described in Example 3. The cell lysate was subjected to Western blotting using anti-NDRG3, anti-HIF-1α, and anti-β-actin (FIGS. 4B and 4C).

[11] = system: NDRG3 protein in MCF-7 cells; test: NDRG3 protein expression after PHD2 inhibition, Western blotting, MCF-7 cells; format: cell-based; conditions: varying concentration, 24 hours, normoxic condition (21% O2)
Method: as §6

[12] = system: NDRG3 protein in NDRG3-overexpressing HeLa cells; test: In vivo ubiquitination assay of NDRG3 under proteasome inhibition; format: cell-based; conditions: 20 μM for 8 hours, normoxic condition
Method: Specifically, a vector for transfection (an MSCV retroviral system) was constructed using a full-length NDRG3 cDNA (SEQ ID NO: 1) and a pMSCVneo retroviral vector (Clontech). To construct the viral vector, a GP293 cell line was transfected using lipofectamine (Invitrogen). After 48 hours, HeLa cells were treated with a cell supernatant containing NDRG3-retroviruses or control-retroviruses together with 6 μg/ml of polybrene for 24 hours. Then, the cells in which the NDRG3 was overexpressed were untreated or treated with 20 μM MG132 for 8 hours, and then collected. The collected cells were subjected to Western blotting using an anti-NDRG3 antibody and an anti-β-actin antibody (FIG. 7A).
Also, to determine ubiquitination of NDRG3 under a normoxic condition, an in vivo ubiquitination assay was performed. First, a vector for transfection was constructed using shNDRG3 (Sigma-Aldrich, SEQ ID NO: 4) and a lentiviral vector to inhibit expression of the NDRG3. To construct the viral vector, a packing cell line was transfected as described above. Thereafter, HeLa cells were treated with a cell supernatant containing the NDRG3 shRNA-expressing lentiviruses together with 6 μg/ml of polybrene, and kept in a DMEM medium supplemented with 10% FBS. […]

[13] = system: NDRG3 protein in MCF-7 cells; test: NDRG3 protein expression after inhibition of glycolysis, MCF-7 cells; format: cell-based; conditions: varying concentration, 24 hours, hypoxic condition (1% O2)
Method: Additionally, to check an effect of inhibition of glycolysis on expression of the NDRG3 protein, MCF-7 cells were treated with a varying concentration of 2-deoxyglucose (2-DG) inhibiting the glycolysis, statically cultured for 24 hours under a hypoxic condition (1% O2), as described in Example 5-2, and then collected and lysed, as described in Example 3. Thereafter, the MCF-7 cells were subjected to Western blotting using anti-NDRG3 and anti-β-actin antibodies (FIG. 15D).

T3 sequence (Q9UGV2 whole entry): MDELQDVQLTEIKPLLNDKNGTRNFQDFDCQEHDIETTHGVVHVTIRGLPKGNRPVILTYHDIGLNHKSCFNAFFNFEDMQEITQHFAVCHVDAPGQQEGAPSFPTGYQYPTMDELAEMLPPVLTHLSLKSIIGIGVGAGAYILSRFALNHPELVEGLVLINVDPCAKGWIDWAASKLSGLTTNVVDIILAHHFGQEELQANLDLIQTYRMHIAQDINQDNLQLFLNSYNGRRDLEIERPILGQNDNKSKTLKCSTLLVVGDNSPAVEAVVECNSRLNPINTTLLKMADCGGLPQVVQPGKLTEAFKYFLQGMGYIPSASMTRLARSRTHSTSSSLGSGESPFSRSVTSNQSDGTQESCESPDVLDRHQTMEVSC
T2 sequence (Q9UGV2 whole entry): as above
T1 sequence (Q9UGV2 whole entry G138W): as the sequence (Q9UGV2 whole entry) above, with G138W counted along it

- lactate-binding affinity of NDRG3 variant protein (14C values) [1]: reduced
- in vitro binding of recombinant NDRG3 protein to lactate (14C values) [2]: increased
- ubiquitination of recombinant NDRG3 protein by PHD2/VHL complex [3]: reduced
SMILES: C[C@H](O)C(=O)O [lactate, L-lactate]

SMILES: NC(=O)C(=O)[O-].[Na+] [sodium oxamate]
- angiogenesis (tube formation) [4]: inhibited
- accumulation of NDRG3 protein [5]: inhibited in proportion to the lactate expression
- cell growth (MTT) (Huh-1 cells): inhibited in a concentration-dependent manner
- accumulation of NDRG3 variant [6]: lasted
- cell growth (MTT) [7]: increased
- angiogenesis (tube formation) [8]: increased again
- accumulation of NDRG3 [9]: inhibited

SMILES: CC(=O)N(O)CCCCCNC(=O)CCC(=O)N(O)CCCCCNC(=O)CCC(=O)N(O)CCCCCN [DFX, desferrioxamine]
- expression of NDRG3 protein [10]: increasingly expressed
- expression of NDRG3 protein [11]: increasingly expressed

SMILES: CC(C)C[C@@H](C=O)NC(=O)[C@H](CC(C)C)NC(=O)[C@H](CC(C)C)NC(=O)OCc1ccccc1 [MG132] (Cbz-Leu-Leu-Leu-aldehyde)
- ubiquitination of NDRG3 protein [12]: actively ubiquitinated

SMILES: O=CC[C@@H](O)[C@H](O)[C@H](O)CO [2-deoxyglucose]
- expression of NDRG3 protein [13]: reduced
